The values that follow come from patent publication US8450525B2, “Histone deacetylase inhibitors” (Orchid Chemicals & Pharmaceuticals Limited, priority 2007, dated 2013).

In one experiment the test system is acetylated Tubulin. Put plainly: Tubulin acetylation, sandwich ELISA in HCT116 cell lysate. It is filed as cell-based. To be noted: HCT116 cells, 4 hours, vs control. As to the method: (§1) The incubation lasted 18 hours for p21 induction. After incubation, cell lysates were prepared in cell lysis buffer by sonication on ice. The lysates were collected after centrifugation and subjected to ELISA test procedure. 100 μL of each diluted cell lysate in dilution buffer (1:1) was added to appropriate capture antibody coated microwells and incubated overnight at 4° C. After washing, 100 μL of detection antibody was added for 1 hour at 37° C. After second washing, 100 μL of HRP-linked secondary antibody was added for 30 minutes at 37° C. Finally, after appropriate washing, 100 μL of TMB substrate was added for 10 minutes at 37° C. followed by 100 μL, of stop solution. The absorbance of individual wells was read using a spectrophotometer at 450 nm (A450).
(In an ELISA, binding on a coated surface is turned into a signal by an enzyme label.)

In the next experiment the test system is NCI-H460 (lung) cells. In words: Anti-cancer screen, growth inhibition (MTT). To be noted: Homo sapiens, 48 hours of incubation. It is filed as cell-based. In outline: (§2)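 MTT added for 3 h at 37° C, formazan dissolved in DMSO and A570 read. A T0 plate was measured at compound addition.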
Another experiment deals with U251 (glioma) cells. In words: Anti-cancer screen, growth inhibition (MTT). It is filed as cell-based. To be noted: Homo sapiens, U-251 cells, 48 hours of incubation. The method in brief:
as §2

A further experiment has as its system HCT 116 (colon) cells. Put plainly: Anti-cancer screen, growth inhibition (MTT). It is filed as cell-based. To be noted: Homo sapiens, HCT-116 cells, 48 hours of incubation. In outline:
as §2

A further experiment concerns HCT116 (colon) xenograft. It is filed as in vivo. To be noted: 100 mg/kg p.o. qdx21, HCT116 xenograft, vs vehicle treated control. As to the method: Experiments were carried out using 6-8 week old female […] SCID (Severe Combined Immune Deficient) mice. The mice were housed in Individually Ventilated Cages (IVC) at constant temperature (22±3° C.) and humidity (50±20%). They had free access to food and water. Tumors were obtained from ATCC, USA and maintained in vivo by subcutaneous (s.c.) passage of tumor fragments (app×30 mg) in healthy mice according to standard reported procedures. All the animal protocols were approved by the Institutional Animal Ethics Committee, ORLL, Chennai. Each experimental group included 6-8 mice bearing s.c. tumors. Tumors were implanted into the axillary region by puncturing using a Trocar, and tumor growth was monitored by measurement of tumor diameters with a Vernier caliper. Tumor Volume (TV) was calculated according to the following formula: TV (mm^3)=L×W^2×0.5,
Where L and W are the longest diameter and shortest diameter of the tumor, respectively. The compound treatment started when tumors were palpable (150-200 mm^3).
Test compound was administered by oral gavage in a volume of 5-10 ml/kg. […] Tumor size was measured twice every week and body weight was recorded daily prior to dosing.
Test compound (T) efficacy was assessed by calculating several parameters based on tumor volume (TV) with respect to untreated control (C). […]
Toxic effects of drug treatment were assessed by Body Weight Loss %. […]

The subject of the next experiment is p21. In words: p21 induction, sandwich ELISA in HCT116 cell lysate. It is filed as cell-based. To be noted: HCT116 cells, 18 hours, vs control. As to the method: as §1
Another experiment deals with Acetylated histone (H3). Put plainly: Histone (H3) acetylation, sandwich ELISA in HCT116 cell lysate. It is filed as cell-based. To be noted: HCT116 cells, 4 hours, vs control. The method, then: as §1
Experiment [1] deals with T1, HDAC (Mouse Liver Extract).
T1 construct: Mouse liver enzyme (10 mg/ml) was diluted 1:6 with HDAC buffer
Put plainly: HDAC inhibition assay using Boc-Lys(Ac)-AMC substrate, mouse liver enzyme. It is filed as biochemical.

A further experiment has as its target T2, recombinant HDAC1 enzyme (Homo sapiens, UniProt Q13547).
T2 construct: purchased BIOMOL, USA
Put plainly: HDAC1 inhibitory activity, recombinant enzyme. It is filed as biochemical. To be noted: recombinant HDAC1 (BIOMOL); read-out: HDAC1 inhibition (IC50). As to the method: Assay was done in 96-well black microplate and total volume of the assay was 100 μL. Mouse liver enzyme (10 mg/ml) was diluted 1:6 with HDAC buffer. Enzyme cocktail was made of 10 μL of diluted enzyme and 30 μL of HDAC buffer. 40 μl of enzyme cocktail followed by 10 μL of test compound (1 μM and 10 μM) or buffer (control) was added to each well. The plate was pre-incubated at 37° C. for 5 minutes. The HDAC reaction was started by adding 50 μl of HDAC substrate Boc-Lys (Ac)-AMC (Bachem AG, Switzerland). The plate was incubated at 37° C. for 30 minutes. The reaction was stopped by adding 100 μL of Trypsin stop solution and incubating at 37° C. for 15-30 minutes. Measuring the fluorescence at excitation wavelength of 360 nm and emission wavelength of 460 nm monitored the release of AMC. Buffer alone and substrate alone served as blank. […] (Dennis Wegener et al, Anal. Biochem, 321, 2003, 202-208).
Since the benzamide type compounds are known to have potential for HDAC class 1 specificity, active compounds were tested for HDAC1 inhibitory activity. The assay was carried out, as previously described using recombinant HDAC1 enzyme (BIOMOL, USA) and following manufacturer's instructions.

T2 sequence (Q13547 whole entry): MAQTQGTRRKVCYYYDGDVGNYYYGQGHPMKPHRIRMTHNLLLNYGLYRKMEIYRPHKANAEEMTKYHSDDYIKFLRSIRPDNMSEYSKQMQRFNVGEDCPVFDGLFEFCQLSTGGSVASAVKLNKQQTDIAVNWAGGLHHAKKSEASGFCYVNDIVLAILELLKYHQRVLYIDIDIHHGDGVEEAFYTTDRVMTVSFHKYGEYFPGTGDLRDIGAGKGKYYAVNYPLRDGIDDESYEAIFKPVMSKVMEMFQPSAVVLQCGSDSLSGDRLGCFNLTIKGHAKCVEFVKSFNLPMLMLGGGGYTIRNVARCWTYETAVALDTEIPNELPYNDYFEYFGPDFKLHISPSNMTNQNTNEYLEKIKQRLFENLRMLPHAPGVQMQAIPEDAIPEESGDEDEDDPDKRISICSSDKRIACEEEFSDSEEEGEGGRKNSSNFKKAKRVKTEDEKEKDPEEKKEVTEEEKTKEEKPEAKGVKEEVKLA

`Nc1ccccc1NC(=O)c1ccc(/C=C(/C(=O)NC2CC2)c2ccc(F)cc2)cc1` [Example 105, (E)-N-(2-Aminophenyl)-4-(3-(cyclopropylamino)-2-(4-fluorophenyl)-3-oxoprop-1-en-1-yl)benzamide]: the “μ-Tubulin Acetylation (Fold Increase)” value in the experiment on acetylated Tubulin (1 μM) is 2.22; in the experiment on acetylated Tubulin (10 μM), 8.98. For the same molecule, the figures for the GI50 in the experiment on NCI-H460 (lung) cells, with U251 (glioma) cells and in the experiment on HCT 116 (colon) cells were 0.9 µM, 4.8 µM and 1 µM, respectively. Moreover, in the experiment on HCT116 (colon) xenograft, the “maximum Tumor Volume Inhibition (TVI)” value is 39.4%. Besides, the “P21 Induction (Fold Increase)” value in the experiment on p21 (1 μM) came to 1.05; in the experiment on p21 (10 μM), 2.50. Also, the results for the “H3 Acetylation (Fold Increase)” value with Acetylated histone (H3) (1 μM) and in the experiment on Acetylated histone (H3) (10 μM) were 1.24 and 6.67, respectively. The values for the IC50 (in experiment [1]; at recombinant HDAC1 enzyme) were 15.8 µM and 0.077 µM, respectively. Also, the “HDAC Inhibition % (1 μM)” value in [1] was 46.0%. In experiment [1], the “HDAC Inhibition % (10 μM)” value amounted to 71.3%.
Take `Nc1ccccc1NC(=O)c1ccc(/C=C(/C(=O)NC2CC2)c2ccc(F)c(F)c2)cc1` [Example 115, N-(2-Aminophenyl)-4-(3-(cyclopropylamino)-2-(3,4-difluorophenyl)-3-oxoprop-1-en-1-yl)benzamide]: the concentration for 50% growth inhibition (GI50) – broadly, the concentration giving 50% growth inhibition – in the experiment with NCI-H460 (lung) cells was found to be 6 µM; with U251 (glioma) cells, 15 µM; with HCT 116 (colon) cells, 0.1 µM. The values for the IC50 (in experiment [1]; on recombinant HDAC1 enzyme) were 8.3 µM and 0.068 µM, respectively. In addition, in experiment [1], the “HDAC Inhibition % (1 μM)” value is listed as 31.1%. Also, in experiment [1], the “HDAC Inhibition % (10 μM)” value is reported as 50.1%.
Consider `COc1ccc(/C(=C\c2ccc(C(=O)Nc3ccccc3N)cc2)C(=O)NC2CC2)cc1` [Example 116, N-(2-Aminophenyl)-4-(3-(cyclopropylamino)-2-(4-methoxyphenyl)-3-oxoprop-1-en-1-yl)benzamide], for which the figures for the GI50 in the experiment with NCI-H460 (lung) cells, in the experiment on U251 (glioma) cells and with HCT 116 (colon) cells were 6.1 µM, 11 µM and 0.4 µM, respectively. Also, the figures for the IC50 (in [1]; on recombinant HDAC1 enzyme) were 9 µM and 0.06 µM, respectively. Also, the “HDAC Inhibition % (1 μM)” value in [1] amounted to 32.4%. In addition, the “HDAC Inhibition % (10 μM)” value in experiment [1] is 55.7%.
